Laboratory results: US20260217698A1 (BEYANG THERAPEUTICS CO., LTD., priority 2022, published 2026)
≈ marks a conversion by molar mass, not a printed value. Like-named read-outs stand apart in the source and are kept apart here.

What was measured:
TIE2 = target: T1, TIE2 (Homo sapiens, UniProt Q02763); test: Kinase inhibition, Mobility Shift Assay/IMAP, TIE2; format: biochemical
T1 construct: purchased BPS 40270
How it was run: (§1)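 Substrate conversion (phosphorylated vs non-phosphorylated) read by mobility shift on Caliper EZ Reader II and converted to % inhibition relative to no-enzyme and DMSO controls. IC50 fitted from % inhibition versus log compound concentration.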

VEGFR2 [1] = target: T2, VEGFR2 (Homo sapiens, UniProt P35968); test: Kinase inhibition, Mobility Shift Assay/IMAP, VEGFR2; format: biochemical; parameters: purchased Carna 08-191
How it was run: as §1
Target sequence in this assay (P35968 790-1356 limits assumed): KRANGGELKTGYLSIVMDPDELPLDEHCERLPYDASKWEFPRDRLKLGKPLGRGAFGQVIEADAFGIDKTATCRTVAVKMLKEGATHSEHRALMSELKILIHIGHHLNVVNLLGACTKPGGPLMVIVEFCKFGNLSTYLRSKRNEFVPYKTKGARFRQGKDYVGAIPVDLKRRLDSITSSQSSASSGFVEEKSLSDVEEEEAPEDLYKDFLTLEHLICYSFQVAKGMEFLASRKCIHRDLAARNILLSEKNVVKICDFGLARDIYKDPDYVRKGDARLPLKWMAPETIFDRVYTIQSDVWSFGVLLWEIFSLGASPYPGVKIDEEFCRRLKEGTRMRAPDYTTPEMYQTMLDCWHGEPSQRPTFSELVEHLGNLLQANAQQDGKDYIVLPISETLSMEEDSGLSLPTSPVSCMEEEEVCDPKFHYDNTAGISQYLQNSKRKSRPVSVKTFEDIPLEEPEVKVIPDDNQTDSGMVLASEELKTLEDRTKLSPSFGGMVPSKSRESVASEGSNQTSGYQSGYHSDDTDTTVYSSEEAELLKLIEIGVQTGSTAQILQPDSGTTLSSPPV

HUVEC cells = test: Inhibition of VEGF-induced HUVEC cell proliferation, CellTiter Glo; format: cell-based; conditions: Homo sapiens, 20 ng/ml VEGF, 72 hours
How it was run: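 HUVEC (4000/well) serum-starved overnight in RPMI-1640 with 5% FBS, compound added 1 h before VEGF (20 ng/ml final in controls). After 72 h at 37 °C, viable cells were quantified by CellTiter-Glo luminescence; % inhibition fitted against log concentration, DMSO+VEGF wells as high control and cell-free wells as low.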

EGFR = target: T3, EGFR (Homo sapiens, UniProt P00533); test: Kinase inhibition, Mobility Shift Assay/IMAP, EGFR; format: biochemical
T3 construct: purchased Carna 08-115
T3 sequence (P00533 669-1210 limits assumed): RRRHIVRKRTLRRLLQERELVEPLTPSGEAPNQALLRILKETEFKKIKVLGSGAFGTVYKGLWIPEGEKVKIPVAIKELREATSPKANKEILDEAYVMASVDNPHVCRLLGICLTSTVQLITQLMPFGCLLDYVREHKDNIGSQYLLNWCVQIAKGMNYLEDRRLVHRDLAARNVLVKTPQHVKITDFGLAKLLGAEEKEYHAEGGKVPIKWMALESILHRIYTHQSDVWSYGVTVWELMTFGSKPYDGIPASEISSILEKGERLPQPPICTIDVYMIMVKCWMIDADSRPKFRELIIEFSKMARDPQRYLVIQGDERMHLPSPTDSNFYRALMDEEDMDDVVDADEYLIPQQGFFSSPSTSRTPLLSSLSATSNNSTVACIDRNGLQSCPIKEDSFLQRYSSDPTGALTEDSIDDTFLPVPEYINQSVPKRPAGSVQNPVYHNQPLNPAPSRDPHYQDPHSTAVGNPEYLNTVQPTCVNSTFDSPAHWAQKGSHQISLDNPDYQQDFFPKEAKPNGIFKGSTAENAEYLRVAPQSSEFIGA
How it was run: as §1

[2] = rabbit; for MTD on the third day of eye drop administration: eye drops 3 times a day, both eyes; for MTD on the eighth day of eye drop administration: six consecutive days of eye drops, 3 times a day
Procedure: We used male Dutch black-banded rabbits to assess the MTD of the compounds administered in eye drops.
Male Dutch black-banded rabbits (weighing 1.5 kg to 2.5 kg) were purchased from an eligible supplier.
A total of 8 rabbits animals with good health conditions and normal eyes (without abnormalities such as trauma, congestion, redness and swelling) were randomly divided into 4 groups. […] Eye drop administration was conducted for two consecutive days, 3 times a day, at an interval of 6±0.5 hours. Before administration, the status of the dosing preparation was inspected, and its homogeneity was ensured by means of vortexing, stirring, or shaking. Before each administration, the states of rabbit eyes were observed, including but not limited to eye color, substances around the eyes, conjunctival swelling, eye exudate, discharge, cornea, pupillary reflex, etc. Subsequently, the toxicity risk assessment for six consecutive days of eye drop administration was further conducted. A total of 8 rabbits were randomly divided into 2 groups. […] Eye drop administration was conducted 3 times a day, at an interval of 6±0.5 hours.

melanin = test: Binding capacity of compounds to melanin; format: in vitro ADME, cuttlefish (Sepia officinalis); conditions: cuttlefish (Sepia officinalis), melanin suspension (1 mg/mL); 1 mg/mL melanin in PBS pH 7.4, 2 μM compound, 2 h at 37° C.; read-out: Fu % (percentage of free drug)
How it was run: (§2)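 Compound (2 μM final) incubated with washed Sepia melanin (1 mg/mL, PBS pH 7.4) 2 h at 37° C with shaking; PBS with 0.1% BSA served as blank. Supernatants quantified by LC-MS/MS; bound fraction Fb derived from melanin versus blank concentration.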

[3] = tested on: male black-banded Dutch rabbits
Excerpt: The binding of the compound to melanin may affect ocular pharmacokinetics after topical administration. […] In such cases, the compound may bind to melanin tissues in the posterior segment (retinal pigment epithelium, choroid) or anterior segment (ciliary body, iris) of the eye.

VEGFR1 = target: T4, VEGFR1 (Homo sapiens, UniProt P17948); test: Kinase inhibition, Mobility Shift Assay/IMAP, VEGFR1; format: biochemical
T4 construct: purchased Invitrogen PR6731B
How it was run: as §1

[4] = Solubility test in buffer, LC-MS; format: physicochemical; conditions: aqueous buffer, thermodynamic from solid, room temperature, shaking 8 h, pH not given (method: pH 2.0, 6.5, 7.4)
How it was run: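 Compound at 2 mg/mL in buffers of pH 2.0, 6.5 and 7.4, sonicated, shaken 8 h at room temperature, then centrifuged at 13,000 rpm. Supernatant quantified by LC-MS against a 3–5 point calibration.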

VEGFR2 [5] = target: T2, VEGFR2; test: Inhibition of VEGF-induced VEGFR2 autophosphorylation (pVEGFR2) in HUVEC cells, ELISA; format: cell-based; parameters: endogenous in cells; host or cells: HUVEC; conditions: 50 ng/mL human VEGF, compound 1 h
Excerpt: Vascular endothelial growth factor receptor 2 (VEGFR2) is a primary receptor for VEGF-induced endothelial cell signaling. After ligand binding, VEGFR2 is autophosphorylated and activated. The main function of signaling from VEGFR2 is to induce vascularization during development and after tissue injury, and to bypass blocked blood vessels. Pathologically, VEGF and VEGFR2 are involved in tumor angiogenesis and vascular leakage. They are considered to be main participants in many different cancers and ocular diseases that accompany pathological neovascularization. This assay measured the ability of the compounds to inhibit VEGF-induced VEGFR2 autophosphorylation (pVEGFR2) in HUVEC cells by using ELISA.
Culture cells in a cell culture flask to reach a fusion degree of 60%-80% before cell inoculation. Dilute the cell suspension to […] with a pre-warmed complete medium. Add 80 μL of the cell suspension to all wells of a 96-well cell plate (Corning-3599); and incubate the plate overnight at 37° C. in the presence of 5% CO2. Dissolve the compound powder to 10 mM with DMSO and store it in a nitrogen cabinet. Compound dilution plate: Add a reference compound Ponatinib or a compound to be tested to a 96 V-well plate (Axygen-WIPP 2280) at concentrations achieved as follows: performing 3-fold gradient dilution starting from 5 mM (5 μL of 10 mM compound solution plus 5 μL of DMSO) for a total of 8 concentration points. […] Transfer 20 μL of the diluted compound from the intermediate plate to a cell plate. Then, incubate the cell plate for 1 h at 37° C. in the presence of 5% CO2. After the compound was treated for 1 h, add 25 μL of 250 ng/ml human VEGF at a final concentration of 50 ng/mL to a 96-well plate; and incubate the plate for 5 min at 37° C. in the presence of 5% CO2, centrifuge the plate for 10 min at 3,000 rpm, remove the medium and wash the cells once with 300 μL of pre-chilled DPBS per well. Then, centrifuge the plate for 10 min at 4,000 rpm, remove DPBS, and add 110 μL of pre-chilled 1× cell lysis buffer per well to the 96-well plate. Shake the plate for 40 min at 4° C. Then, freeze the plate in a refrigerator at −80° C. On the next day, remove the plate from the refrigerator at −80° C., thaw the plate, centrifuge the plate for 10 min at 3500 rpm, and add 100 μL of the supernatant per well to an ELISA plate. Seal the plate and incubate it for 2 h at 37° C. Wash the wells 4 times with 1× wash buffer. Add 100 μL of recombinant detection antibody per well. Seal the plate, incubate the plate for 1 h at 37° C., and repeat the step of plate washing. Add 100 μL of secondary antibody per well. Seal the plate, incubate the plate for 30 min at 37° C., and repeat the step of plate washing. Add 100 μL of TMB (protected from light) per well. Seal the plate, incubate the plate for 30 min at 37° C., and add 100 μL of the stop solution per well. Gently shake for 30 sec, measure the absorbance with a SpectraMax® 340 PC 384 Absorbance Microplate Reader within 30 min, and read an optical density value at 450 nm. Conduct data analysis using XL Fit software:
Conduct curve fitting using the 4 Parameter Logistic Model or Sigmoidal Dose-Response Model to obtain IC50 values.
X indicates the log value of compound concentration, Y indicates the inhibition rate (% inhibition), Top indicates the readout of the negative control wells, and Bottom indicates the readout of the positive control well.
Target sequence in this assay (P35968 20-1356): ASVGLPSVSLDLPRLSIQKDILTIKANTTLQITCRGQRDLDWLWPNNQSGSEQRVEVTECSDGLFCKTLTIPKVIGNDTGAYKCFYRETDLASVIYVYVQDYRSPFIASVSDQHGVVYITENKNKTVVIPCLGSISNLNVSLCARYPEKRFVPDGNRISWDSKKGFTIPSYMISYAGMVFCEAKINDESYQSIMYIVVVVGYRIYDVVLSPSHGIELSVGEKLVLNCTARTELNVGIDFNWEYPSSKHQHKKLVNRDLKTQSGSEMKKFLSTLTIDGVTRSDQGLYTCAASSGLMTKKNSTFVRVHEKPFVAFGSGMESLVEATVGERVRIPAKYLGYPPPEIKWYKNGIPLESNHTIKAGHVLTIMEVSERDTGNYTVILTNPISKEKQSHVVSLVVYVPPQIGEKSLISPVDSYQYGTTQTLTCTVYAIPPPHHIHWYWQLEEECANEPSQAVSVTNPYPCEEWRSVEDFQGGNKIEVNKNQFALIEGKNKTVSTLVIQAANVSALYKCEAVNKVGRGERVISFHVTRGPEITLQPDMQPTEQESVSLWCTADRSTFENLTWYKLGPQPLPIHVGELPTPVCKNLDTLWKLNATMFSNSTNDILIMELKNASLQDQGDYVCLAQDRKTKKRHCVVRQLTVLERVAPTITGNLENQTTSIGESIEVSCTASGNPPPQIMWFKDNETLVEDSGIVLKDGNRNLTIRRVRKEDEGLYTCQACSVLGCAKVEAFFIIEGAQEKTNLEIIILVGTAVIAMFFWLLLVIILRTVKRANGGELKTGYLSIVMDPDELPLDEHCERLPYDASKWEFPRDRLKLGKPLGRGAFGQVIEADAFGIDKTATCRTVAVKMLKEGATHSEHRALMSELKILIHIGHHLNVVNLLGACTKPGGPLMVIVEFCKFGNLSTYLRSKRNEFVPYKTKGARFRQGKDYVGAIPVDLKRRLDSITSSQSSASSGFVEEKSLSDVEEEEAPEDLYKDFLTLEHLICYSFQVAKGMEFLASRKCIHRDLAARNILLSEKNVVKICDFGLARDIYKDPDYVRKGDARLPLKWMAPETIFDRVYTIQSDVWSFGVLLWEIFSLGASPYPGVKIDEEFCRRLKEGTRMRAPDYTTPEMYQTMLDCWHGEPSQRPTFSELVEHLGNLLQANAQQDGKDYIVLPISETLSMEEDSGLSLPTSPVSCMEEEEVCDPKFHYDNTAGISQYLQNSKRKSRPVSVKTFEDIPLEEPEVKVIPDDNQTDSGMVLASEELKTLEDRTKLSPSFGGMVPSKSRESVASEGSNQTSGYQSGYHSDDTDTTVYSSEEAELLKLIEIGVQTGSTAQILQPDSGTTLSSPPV

VEGFR3 = target: T5, VEGFR3 (Homo sapiens, UniProt P35916); test: Kinase inhibition, Mobility Shift Assay/IMAP, VEGFR3; format: biochemical
T5 construct: purchased Invitrogen PV4129
T5 sequence (P35916 25-1363): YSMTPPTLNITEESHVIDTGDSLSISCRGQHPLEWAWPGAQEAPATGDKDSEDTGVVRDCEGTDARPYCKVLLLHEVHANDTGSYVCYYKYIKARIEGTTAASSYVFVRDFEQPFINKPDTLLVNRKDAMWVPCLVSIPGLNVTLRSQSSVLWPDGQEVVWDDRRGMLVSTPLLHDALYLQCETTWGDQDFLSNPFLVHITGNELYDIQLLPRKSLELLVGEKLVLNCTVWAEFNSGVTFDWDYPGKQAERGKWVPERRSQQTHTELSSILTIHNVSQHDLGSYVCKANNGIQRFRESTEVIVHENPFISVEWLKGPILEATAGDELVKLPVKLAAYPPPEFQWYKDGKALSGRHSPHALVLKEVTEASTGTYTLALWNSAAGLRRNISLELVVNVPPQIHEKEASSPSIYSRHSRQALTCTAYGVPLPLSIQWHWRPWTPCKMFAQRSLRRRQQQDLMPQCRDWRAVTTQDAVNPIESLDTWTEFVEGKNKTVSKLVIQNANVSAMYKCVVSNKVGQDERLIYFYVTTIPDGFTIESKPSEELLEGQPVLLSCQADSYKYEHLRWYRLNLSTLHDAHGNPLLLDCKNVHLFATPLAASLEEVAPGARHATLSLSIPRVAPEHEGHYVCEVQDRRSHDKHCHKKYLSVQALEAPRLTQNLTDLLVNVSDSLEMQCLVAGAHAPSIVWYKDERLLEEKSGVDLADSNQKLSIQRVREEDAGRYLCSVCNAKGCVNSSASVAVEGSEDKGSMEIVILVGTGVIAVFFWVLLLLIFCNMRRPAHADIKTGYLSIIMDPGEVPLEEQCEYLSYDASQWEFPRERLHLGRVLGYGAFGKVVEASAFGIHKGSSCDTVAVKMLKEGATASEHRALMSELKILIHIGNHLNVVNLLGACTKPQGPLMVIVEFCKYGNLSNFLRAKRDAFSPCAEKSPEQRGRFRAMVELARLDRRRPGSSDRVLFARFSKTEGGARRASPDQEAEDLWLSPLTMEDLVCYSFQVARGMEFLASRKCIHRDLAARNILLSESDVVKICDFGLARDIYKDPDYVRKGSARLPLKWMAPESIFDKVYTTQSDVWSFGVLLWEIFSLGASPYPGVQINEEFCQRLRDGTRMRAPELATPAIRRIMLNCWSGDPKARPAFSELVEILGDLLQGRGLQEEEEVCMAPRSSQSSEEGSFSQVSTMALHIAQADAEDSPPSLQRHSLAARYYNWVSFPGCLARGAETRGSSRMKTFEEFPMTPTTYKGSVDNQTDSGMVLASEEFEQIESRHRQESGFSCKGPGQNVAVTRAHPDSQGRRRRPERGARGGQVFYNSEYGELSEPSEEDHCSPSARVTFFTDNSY
How it was run: as §1

[6] = Binding capacity of compounds to melanin; format: in vitro ADME, cuttlefish (Sepia officinalis)
How it was run: as §2

[7] = eye drops, male black-banded Dutch rabbits, third day after eye drop administration

T1 sequence (Q02763 23-1124): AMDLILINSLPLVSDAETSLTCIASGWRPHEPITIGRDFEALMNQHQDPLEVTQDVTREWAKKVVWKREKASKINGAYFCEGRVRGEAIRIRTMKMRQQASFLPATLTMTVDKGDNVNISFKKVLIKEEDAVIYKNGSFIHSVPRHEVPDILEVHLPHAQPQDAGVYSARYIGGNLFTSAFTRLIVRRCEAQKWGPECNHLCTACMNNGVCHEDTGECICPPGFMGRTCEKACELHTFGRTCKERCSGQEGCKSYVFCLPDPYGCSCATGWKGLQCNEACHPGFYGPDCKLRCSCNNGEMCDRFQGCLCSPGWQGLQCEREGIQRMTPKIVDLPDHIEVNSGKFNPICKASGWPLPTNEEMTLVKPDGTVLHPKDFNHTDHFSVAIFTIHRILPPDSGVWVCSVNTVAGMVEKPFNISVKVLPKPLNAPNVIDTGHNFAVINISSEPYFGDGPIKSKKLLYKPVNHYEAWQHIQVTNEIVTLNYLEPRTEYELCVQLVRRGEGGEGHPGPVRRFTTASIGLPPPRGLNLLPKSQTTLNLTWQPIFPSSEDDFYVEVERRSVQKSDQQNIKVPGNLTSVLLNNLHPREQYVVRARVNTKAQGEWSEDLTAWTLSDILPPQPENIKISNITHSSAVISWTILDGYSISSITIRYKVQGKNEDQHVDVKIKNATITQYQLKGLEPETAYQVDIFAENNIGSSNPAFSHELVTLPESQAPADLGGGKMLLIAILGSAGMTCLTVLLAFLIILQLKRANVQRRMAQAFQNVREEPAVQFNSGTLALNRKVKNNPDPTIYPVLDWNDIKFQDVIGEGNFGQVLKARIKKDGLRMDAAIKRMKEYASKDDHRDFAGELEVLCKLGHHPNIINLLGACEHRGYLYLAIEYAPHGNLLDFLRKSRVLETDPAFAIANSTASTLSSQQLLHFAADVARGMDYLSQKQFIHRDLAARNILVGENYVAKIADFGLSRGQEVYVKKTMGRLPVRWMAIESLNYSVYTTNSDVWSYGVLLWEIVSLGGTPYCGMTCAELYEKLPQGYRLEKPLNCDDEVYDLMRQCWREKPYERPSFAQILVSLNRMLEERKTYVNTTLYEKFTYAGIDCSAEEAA

IC50 (VEGFR2 [1])	IC50 (EGFR)	IC50 (VEGFR1)	IC50 (VEGFR2 [5])	IC50 (VEGFR3)	Compound	IC50 (TIE2)	IC50 (HUVEC cells)	MTD on the third day of eye drop administration [2]	MTD on the eighth day of eye drop administration [2]	fraction unbound at 2 h, 2 μM (melanin)	maximum tolerated dose (MTD) [3, 7]	solubility at 8 h [4]	Eye observations ([2]; 100 μg/eye, six consecutive days, seventh day)	Percentage of free drug with respect to melanin, comparison in words [6]	maximum tolerated dose (MTD) ([3]; eye drops to rabbits for six consecutive days)
14.2 nM	33 µM	34.3 nM	22 nM	42 nM	NC(=O)c1c(OCc2ccc3c(c2)OCC3)nsc1NC(=O)NCCCCN1CCCC1 [Compound T042, 3-((2,3-dihydrobenzofuran-6-yl)methoxy)-5-(3-(4-(pyrrolidin-1-yl)butyl)ureido)isothiazole-4-carboxamide]	448 nM	79.9 nM	–	–	–	–	820 µg/mL (≈ 1780 µM)	–	–	–
–	–	–	–	–	NC(=O)c1c(OCc2c(F)cc(Br)cc2F)nsc1NC(=O)NCCCCN1CCCC1 [PAN90806]	–	76.8 nM	100 μg/eye	50 μg/eye	0.0129	100 μg/eye	124 µg/mL (≈ 234 µM)	ocular toxicity (corneal opacity and conjunctival swelling, or corneal edema and conjunctival hyperemia, or ocular discharge) was observed in all the 4 rabbits	lower percentage of free drug	50 μg/eye
2.7 nM	> 60 µM	–	27 nM	–	COc1cc(OC)c(F)c(COc2nsc(NC(=O)NCCC3CCN(CCF)CC3)c2C(N)=O)c1F [Compound T126, 3-[(2,6-difluoro-3,5-dimethoxy-phenyl)methoxy]-5-[2-[1-(2-fluoroethyl)-4-piperidyl]ethylcarbamoylamino]isothiazole-4-carboxamide]	–	22 nM	–	–	0.0495	–	–	–	–	–

Compound	IC50 (VEGFR2 [1])	IC50 (EGFR)	IC50 (VEGFR1)	IC50 (VEGFR2 [5])	IC50 (VEGFR3)	IC50 (TIE2)	IC50 (HUVEC cells)	MTD on the third day of eye drop administration [2]	MTD on the eighth day of eye drop administration [2]	fraction unbound at 2 h, 2 μM (melanin)	maximum tolerated dose (MTD) [3, 7]	solubility at 8 h [4]	Eye observations ([2]; 100 μg/eye, six consecutive days, seventh day)	Percentage of free drug with respect to melanin, comparison in words [6]	maximum tolerated dose (MTD) ([3]; eye drops to rabbits for six consecutive days)
COc1ccc(F)c(COc2nsc(NC(=O)NCCCCN3CCCC3)c2C(N)=O)c1F [Compound T093, 3-((2,6-difluoro-3-methoxybenzyl)oxy)-5-(3-(4-(pyrrolidin-1-yl)butyl)ureido)isothiazole-4-carboxamide]	12.4 nM	14.6 µM	–	–	–	181 nM	55.8 nM	≥ 250 μg/eye	≥ 250 μg/eye	0.0531	≥ 250 μg/eye	–	–	–	–
